Source: patent US8877759B2, “Aminopyrazines as ATR kinase inhibitors” (Vertex Pharnaceuticals Incorporated, priority 2011, dated 2014)

Biological target: T1, full-length ATR (Homo sapiens, UniProt Q13535)
T1 construct: Assays were carried out at 25° C. in the presence of 5 nM full-length ATR
Assay: ATR Inhibition Assay (radioactive-phosphate incorporation)
Type: biochemical
Settings: for ATR Ki: Ki(app), 5 nM full-length ATR, 10 μM [γ-33P]ATP, 800 μM target peptide, 25° C.
Method: Compounds were screened for their ability to inhibit ATR kinase using a radioactive-phosphate incorporation assay. Assays were carried out in a mixture of 50 mM Tris/HCl (pH 7.5), 10 mM MgCl2 and 1 mM DTT.
Assays were carried out at 25° C. in the presence of 5 nM full-length ATR. An assay stock buffer solution was prepared containing all of the reagents listed above, with the exception of ATP and the test compound of interest. […] The plate was pre-incubated for 10 minutes at 25° C. and the reaction initiated by addition of 15 μL [γ-33P]ATP (final concentration 10 μM).
The reaction was stopped after […] by the addition of 30 μL 0.1M phosphoric acid containing 2 mM ATP. A multiscreen phosphocellulose filter 96-well plate (Millipore, Cat no. MAPHN0B50) was pretreated with 100 μL 0.2M phosphoric acid prior to the addition of 45 μL of the stopped assay mixture. The plate was washed with 5×200 μL 0.2M phosphoric acid.
After removing mean background values for all of the data points, Ki(app) data were calculated from non-linear regression analysis of the initial rate data using the Prism software package (GraphPad Prism version 3.0cx for Macintosh, GraphPad Software, San Diego Calif., USA).

T1 sequence (Q13535 whole entry): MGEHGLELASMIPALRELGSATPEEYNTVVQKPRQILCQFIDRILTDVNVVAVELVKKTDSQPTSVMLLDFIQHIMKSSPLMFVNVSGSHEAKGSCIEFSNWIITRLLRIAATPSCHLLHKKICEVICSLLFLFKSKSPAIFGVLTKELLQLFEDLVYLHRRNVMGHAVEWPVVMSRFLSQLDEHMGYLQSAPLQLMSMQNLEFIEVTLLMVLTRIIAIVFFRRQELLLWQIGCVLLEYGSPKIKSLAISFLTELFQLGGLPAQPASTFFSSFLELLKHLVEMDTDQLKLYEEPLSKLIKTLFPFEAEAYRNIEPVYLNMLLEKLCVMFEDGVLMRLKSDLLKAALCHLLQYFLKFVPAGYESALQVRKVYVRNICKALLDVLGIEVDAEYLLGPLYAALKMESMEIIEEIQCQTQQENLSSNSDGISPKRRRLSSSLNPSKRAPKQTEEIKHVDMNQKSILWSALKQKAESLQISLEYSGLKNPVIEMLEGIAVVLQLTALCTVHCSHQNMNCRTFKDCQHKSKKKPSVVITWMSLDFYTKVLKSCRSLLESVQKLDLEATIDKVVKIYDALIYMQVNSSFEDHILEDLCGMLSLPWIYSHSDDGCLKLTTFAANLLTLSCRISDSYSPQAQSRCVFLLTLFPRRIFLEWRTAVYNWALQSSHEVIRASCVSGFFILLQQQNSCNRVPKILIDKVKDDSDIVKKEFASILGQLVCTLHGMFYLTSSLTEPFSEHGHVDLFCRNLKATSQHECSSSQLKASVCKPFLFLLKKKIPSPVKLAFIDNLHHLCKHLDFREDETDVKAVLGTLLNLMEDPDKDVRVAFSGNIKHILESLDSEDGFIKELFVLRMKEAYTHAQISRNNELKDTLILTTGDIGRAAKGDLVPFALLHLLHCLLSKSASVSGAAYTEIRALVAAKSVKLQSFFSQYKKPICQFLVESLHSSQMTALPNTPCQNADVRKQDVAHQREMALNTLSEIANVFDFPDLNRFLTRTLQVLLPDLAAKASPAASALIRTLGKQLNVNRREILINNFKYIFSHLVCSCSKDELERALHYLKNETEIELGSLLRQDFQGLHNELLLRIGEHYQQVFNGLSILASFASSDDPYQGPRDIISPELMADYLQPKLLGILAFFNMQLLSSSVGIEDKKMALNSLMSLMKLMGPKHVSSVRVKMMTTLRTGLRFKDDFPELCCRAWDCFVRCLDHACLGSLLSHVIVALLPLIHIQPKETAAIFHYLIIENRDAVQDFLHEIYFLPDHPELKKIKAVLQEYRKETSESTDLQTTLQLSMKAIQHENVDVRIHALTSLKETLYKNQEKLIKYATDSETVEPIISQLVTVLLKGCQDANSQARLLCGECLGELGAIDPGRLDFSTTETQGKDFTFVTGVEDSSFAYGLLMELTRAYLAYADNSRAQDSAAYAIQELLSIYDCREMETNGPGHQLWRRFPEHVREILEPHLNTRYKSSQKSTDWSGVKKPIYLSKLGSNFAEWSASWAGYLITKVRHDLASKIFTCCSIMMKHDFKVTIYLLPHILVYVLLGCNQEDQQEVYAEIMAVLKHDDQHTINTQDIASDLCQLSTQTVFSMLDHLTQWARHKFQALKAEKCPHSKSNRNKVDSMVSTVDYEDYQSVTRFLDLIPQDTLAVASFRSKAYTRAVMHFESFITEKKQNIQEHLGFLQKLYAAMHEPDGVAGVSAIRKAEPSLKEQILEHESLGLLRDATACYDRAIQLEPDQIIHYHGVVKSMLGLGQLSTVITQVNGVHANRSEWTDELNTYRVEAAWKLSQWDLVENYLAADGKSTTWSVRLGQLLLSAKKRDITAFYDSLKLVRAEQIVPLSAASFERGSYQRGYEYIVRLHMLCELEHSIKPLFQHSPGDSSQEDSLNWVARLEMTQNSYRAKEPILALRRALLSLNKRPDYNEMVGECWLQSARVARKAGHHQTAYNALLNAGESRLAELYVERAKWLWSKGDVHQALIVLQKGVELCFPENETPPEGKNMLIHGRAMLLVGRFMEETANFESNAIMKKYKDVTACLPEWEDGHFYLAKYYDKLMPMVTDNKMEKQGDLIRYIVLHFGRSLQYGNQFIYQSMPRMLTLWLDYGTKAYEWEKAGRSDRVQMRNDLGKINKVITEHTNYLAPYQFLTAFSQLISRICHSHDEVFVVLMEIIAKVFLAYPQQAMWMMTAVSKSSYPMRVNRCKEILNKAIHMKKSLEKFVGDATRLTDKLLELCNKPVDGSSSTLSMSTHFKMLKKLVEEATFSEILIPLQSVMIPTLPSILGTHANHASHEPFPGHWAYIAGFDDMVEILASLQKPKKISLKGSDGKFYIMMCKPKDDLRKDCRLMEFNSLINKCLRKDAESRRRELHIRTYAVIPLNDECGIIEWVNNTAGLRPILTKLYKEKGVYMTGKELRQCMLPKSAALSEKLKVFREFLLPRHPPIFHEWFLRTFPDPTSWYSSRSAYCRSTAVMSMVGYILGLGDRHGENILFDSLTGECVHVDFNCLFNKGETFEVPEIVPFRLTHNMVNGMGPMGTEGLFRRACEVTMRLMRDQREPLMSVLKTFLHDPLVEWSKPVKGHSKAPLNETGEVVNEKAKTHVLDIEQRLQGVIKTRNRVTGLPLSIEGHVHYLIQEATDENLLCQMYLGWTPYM

SMILES	ATR Ki	Ki [nM]
N#CC1(c2cc(-c3cnc(N)c(-c4cc(-c5ccc(CO)cc5)no4)n3)ccn2)CCNCC1 [Compound I-31, 4-[4-[5-amino-6-[3-[4-(hydroxymethyl)phenyl]isoxazol-5-yl]pyrazin-2-yl]-2-pyridyl]piperidine-4-carbonitrile]	+++ (Compounds with a Ki value >5 nM but ≦1 nM are marked with “+++.”)	–
N#CC1(c2cc(-c3cnc(N)c(-c4cc(-c5ccc(O)cc5)no4)n3)ccn2)CCNCC1 [Compound I-32, 4-[4-[5-amino-6-[3-(4-hydroxyphenyl)isoxazol-5-yl]pyrazin-2-yl]-2-pyridyl]piperidine-4-carbonitrile]	+++ (Compounds with a Ki value >5 nM but ≦1 nM are marked with “+++.”)	–
N#CC1(c2cc(-c3cnc(N)c(-c4cc(-c5ccc6[nH]ccc6c5)no4)n3)ccn2)CCNCC1 [Compound I-33, 4-[4-[5-amino-6-[3-(1H-indol-5-yl)isoxazol-5-yl]pyrazin-2-yl]-2-pyridyl]piperidine-4-carbonitrile]	+++ (Compounds with a Ki value >5 nM but ≦1 nM are marked with “+++.”)	–
N#CC1(c2cc(-c3cnc(N)c(-c4cc(-c5ccc(CN[C@H]6CCOC6)cc5)no4)n3)ccn2)CC1 [Compound I-34, 1-[4-[5-amino-6-[3-[4-[[[(3S)-tetrahydrofuran-3-yl]amino]methyl]phenyl]isoxazol-5-yl]pyrazin-2-yl]-2-pyridyl]cyclopropanecarbonitrile]	–	< 1
N#CC1(c2cc(-c3cnc(N)c(-c4cc(-c5ccc(CN[C@H]6CCOC6)cc5)no4)n3)ccn2)CCC1 [Compound I-35, 1-[4-[5-amino-6-[3-[4-[[[(3S)-tetrahydrofuran-3-yl]amino]methyl]phenyl]isoxazol-5-yl]pyrazin-2-yl]-2-pyridyl]cyclobutanecarbonitrile]	–	< 1
N#CC1(c2cc(-c3cnc(N)c(-c4cc(-c5ccc(CN[C@H]6CCOC6)cc5)no4)n3)ccn2)CCCC1 [Compound I-36, 1-[4-[5-amino-6-[3-[4-[[[(3S)-tetrahydrofuran-3-yl]amino]methyl]phenyl]isoxazol-5-yl]pyrazin-2-yl]-2-pyridyl]cyclopentanecarbonitrile]	–	< 1
CN1CCCC(C#N)(c2cc(-c3cnc(N)c(-c4cc(-c5ccccc5)no4)n3)ccn2)C1 (stereo not drawn) [Compound I-37, 3-[4-[5-amino-6-(3-phenylisoxazol-5-yl)pyrazin-2-yl]-2-pyridyl]-1-methyl-piperidine-3-carbonitrile]	–	< 1
COCCNC(=O)C(C)(C)c1cc(-c2cnc(N)c(-c3cc(-c4ccccc4)no3)n2)ccn1 [Compound I-38, 2-[4-[5-amino-6-(3-phenylisoxazol-5-yl)pyrazin-2-yl]-2-pyridyl]-N-(2-methoxyethyl)-2-methyl-propanamide]	–	5 to 20
CN(C)C(=O)C(C)(C)c1cc(-c2cnc(N)c(-c3cc(-c4ccccc4)no3)n2)ccn1 [Compound I-39, 2-[4-[5-amino-6-(3-phenylisoxazol-5-yl)pyrazin-2-yl]-2-pyridyl]-N,N,2-trimethyl-propanamide]	+++ (Compounds with a Ki value >5 nM but ≦1 nM are marked with “+++.”)	–
CC(C)(C(=O)NCCCN)c1cc(-c2cnc(N)c(-c3cc(-c4ccccc4)no3)n2)ccn1 [Compound I-40, 2-[4-[5-amino-6-(3-phenylisoxazol-5-yl)pyrazin-2-yl]-2-pyridyl]-N-(3-aminopropyl)-2-methyl-propanamide]	+++ (Compounds with a Ki value >5 nM but ≦1 nM are marked with “+++.”)	–
CC(C)(C#N)c1cc(-c2cnc(N)c(-c3cc(-c4ccc(C5CNCCN5)cc4)no3)n2)ccn1 (stereo not drawn) [Compound I-41, 2-[4-[5-amino-6-[3-(4-piperazin-2-ylphenyl)isoxazol-5-yl]pyrazin-2-yl]-2-pyridyl]-2-methyl-propanenitrile]	–	< 1
N#CC1(c2cc(-c3cnc(N)c(-c4cc(-c5ccc(CN[C@H]6CCOC6)cc5)no4)n3)ccn2)CCOCC1 [Compound I-42, 4-[4-[5-amino-6-[3-[4-[[[(3S)-tetrahydrofuran-3-yl]amino]methyl]phenyl]isoxazol-5-yl]pyrazin-2-yl]-2-pyridyl]tetrahydropyran-4-carbonitrile]	–	< 1
